{"source": "patent US12502374B2", "about": "“Composition for preventing, alleviating, or treating inflammatory disease containing isookanin or salt thereof as active ingredient” (BioSpectrum, Inc., priority 2020, dated 2025)", "key": {"human skin": {"system": "human skin", "assay": "Human skin safety, repeated insult patch test (Finn chamber)", "format": "in vivo", "settings": "30 healthy adults", "procedure": "In order to confirm that the isookanin according to the present invention is safe for human skin, a skin safety verification test was performed. To this end, a repeated insult patch test was conducted.\nNourishing creams containing the isookanin in amounts of 0.1%, 0.5% and 1%, respectively, were prepared. Specifically, a water phase containing purified water, triethanolamine and propylene glycol was dissolved by heating to 70° C. and then emulsified by adding a solution obtained by dissolving beeswax, liquid paraffin, an oil component, an emulsifier and a preservative by heating to 70° C. After completion of emulsification, the solution was cooled to 45° C., and the isookanin was added thereto in amounts of 0.1%, 0.5% and 1% and dispersed therein, followed by cooling to 30° C. As the content of the isookanin was increased from 0.1% to 0.5% and 1%, the content of liquid paraffin was decreased from 9.91% to 9.51% and 9.01%, respectively, thereby preparing nourishing creams.\nUsing the nourishing creams prepared as described above, a repeated insult patch test was conducted on the upper arm areas of 30 healthy adults every other day for a total of 9 times for 24 hours per time to determine whether the isookanin irritated the skin.\nThe patch test was performed using a Finn chamber (Epitest Ltd., Finland). 15 μl of each of the external skin preparations was dropped into the chamber, and then the patch test was performed.\n[Equation 1] Average degree of reaction=[[(reaction index×degree of reaction)/(total number of subjects×highest score (4)]×100]÷number of tests (9)\nIn the degree of reaction, ± represents a score of 1, + represents a score of 2, and ++ represents a score of 4. When the average degree of reaction is less than 3, the corresponding composition is determined to be safe."}, "HMEC-1": {"system": "HMEC-1", "assay": "PGE2-induced vascular endothelial cell proliferation (MTT assay)", "format": "cell-based, human", "settings": "1 hour pretreatment; 20 μM PGE2, 48 hours; FIG. 8", "procedure": "Human microvascular […] cells (HMEC-1, ATCC, USA) were cultured in MCDB131 medium (Thermo Fisher, USA) containing 10 ng/ml EGF, 1 μg/mL cortisol, 10 mM glutamine and 10% FBS, and then seeded in a 24-well plate at a density of 5×10^4 cells per well and cultured in an incubator for 24 hours at cultured at 37° C. under 5% CO2. After culturing, each well was pretreated with each concentration of isookanin for 1 hour, and then treated with 20 μM PGE2 and cultured again for 48 hours. After 48 hours of culturing, the degree of vascular cell proliferation was measured using MTT assay, and the results are shown in FIG. 8."}, "recombinant kallikrein-5": {"target": "T1, recombinant kallikrein-5 (Homo sapiens, UniProt Q9Y337)", "T1 construct": "purchased R&D Systems, USA", "T1 sequence (Q9Y337 23-293)": "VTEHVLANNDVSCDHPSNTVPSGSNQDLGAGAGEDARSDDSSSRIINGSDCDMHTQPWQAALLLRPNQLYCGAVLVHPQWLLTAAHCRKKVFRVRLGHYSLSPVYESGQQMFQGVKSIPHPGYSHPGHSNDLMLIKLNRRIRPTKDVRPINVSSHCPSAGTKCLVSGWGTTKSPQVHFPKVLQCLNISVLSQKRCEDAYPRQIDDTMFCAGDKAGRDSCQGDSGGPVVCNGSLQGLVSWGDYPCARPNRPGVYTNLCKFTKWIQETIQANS", "assay": "Kallikrein-5 enzymatic activity, fluorescent substrate Boc-Val-Pro-Arg-AMC", "format": "biochemical", "settings": "10 and 20 ppm; FIG. 2", "procedure": "To measure the enzymatic activity of kallikrein-5 which is a trypsin-like proteolytic enzyme present in skin keratinocytes, recombinant kallikrein-5 (R&D Systems, USA) was allowed to react with the fluorescently labeled substrate Boc-Val-Pro-Arg-AMC (R&D Systems, USA), and the enzymatic activity was measured. 50 μl of 2 μg/ml recombinant kallikrein-5 was treated with different concentrations (10 and 20 ppm) of isookanin and then allowed to react at room temperature for 10 minutes, and then 50 μl of 800 μM kallikrein-5 substrate was added thereto, followed by measurement in kinetic mode at 380 nm/480 nm fluorescence for 5 minutes. As a positive control, the trypsin inhibitor Leupeptin (Sigma Aldrich, USA) was used, and as a negative control, non-treated recombinant kallikrein was used. For evaluation of the degree of activity, based on the value obtained by subtracting the lowest fluorescence value from the highest fluorescence value among the measurement values under each condition, the fluorescence value of the group treated with isookanin was compared with the fluorescence value of the group not treated with isookanin, and the results are shown in FIG. 2."}, "PGE2": {"system": "PGE2", "assay": "LPS-induced PGE2 secretion in RAW 264.7 macrophages (ELISA)", "format": "cell-based, mouse", "settings": "1, 5 and 10 ppm, LPS 100 ng/mL, FIG. 7", "procedure": "Mouse macrophages (RAW 264.7) were seeded in a 24-well microplate at a density of about 2×10^5 cells per well, and cultured in an incubator for 24 hours at 37° C. under 5% CO2. Thereafter, the cells were treated with each of 1, 5 and 10 ppm of isookanin, and then treated with LPS (100 ng/mL) and cultured, and then the cell culture medium was collected. Next, the secretion level of PGE2 was measured using an ELISA kit. As a negative control group (−), mouse macrophages not treated with isookanin and LPS were used."}, "TLR-2": {"target": "T2, TLR-2 (Homo sapiens, UniProt O60603)", "T2 construct": "host or cells: HEK-Blue TLR2 cell line", "T2 sequence (O60603 21-784)": "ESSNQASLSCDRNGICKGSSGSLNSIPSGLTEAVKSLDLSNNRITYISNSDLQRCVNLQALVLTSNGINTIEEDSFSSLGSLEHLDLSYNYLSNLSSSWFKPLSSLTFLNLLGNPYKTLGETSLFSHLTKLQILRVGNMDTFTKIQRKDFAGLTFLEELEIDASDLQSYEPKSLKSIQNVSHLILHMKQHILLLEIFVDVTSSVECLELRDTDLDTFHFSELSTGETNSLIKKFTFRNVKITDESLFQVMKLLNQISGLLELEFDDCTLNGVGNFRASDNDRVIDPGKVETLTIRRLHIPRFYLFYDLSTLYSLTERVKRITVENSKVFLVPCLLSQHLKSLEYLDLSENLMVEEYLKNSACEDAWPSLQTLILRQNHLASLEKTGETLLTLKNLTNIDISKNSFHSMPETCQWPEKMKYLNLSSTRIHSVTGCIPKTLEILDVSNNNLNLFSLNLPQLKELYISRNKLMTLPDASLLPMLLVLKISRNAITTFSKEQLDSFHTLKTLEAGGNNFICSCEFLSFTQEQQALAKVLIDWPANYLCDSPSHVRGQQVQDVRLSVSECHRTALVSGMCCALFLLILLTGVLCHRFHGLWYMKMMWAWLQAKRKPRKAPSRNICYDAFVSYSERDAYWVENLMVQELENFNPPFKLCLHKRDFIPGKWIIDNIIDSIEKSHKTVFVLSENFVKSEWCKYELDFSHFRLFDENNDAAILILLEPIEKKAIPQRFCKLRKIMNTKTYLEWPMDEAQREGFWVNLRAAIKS", "assay": "Chitin-induced TLR-2 activation, HEK-Blue TLR2 SEAP reporter cells", "format": "cell-based", "settings": "1 hour pretreatment, then chitin for 12 hours; FIG. 3", "procedure": "The anti-inflammatory effect of isookanin by inhibition of TLR-2 activation was measured. The HEK-Blue™ TLR2 cell line (InvivoGen, USA) co-transfected with TLR-2 and SEAP (secreted embryonic alkaline phosphatase) reporter genes was used. The SEAP reporter gene contains transcription factors NF-kB and AP-1 binding sites, and thus when NF-kB and AP-1 are activated by TLR-2 activation, SEAP is produced and secreted extracellularly. Specifically, the HEK-Blue™ TLR2 cell line was cultured in DMEM containing 10% FBS, and then seeded in a 48-well plate at a density of 1×10^5 cells per well, and pretreated with isookanin for 1 hour. Next, the cells were treated with chitin (Carbosynth, USA) and cultured again for 12 hours. Here, chitin is a component of demodex and is known as a major trigger of inflammatory rosacea. […] 20 μl of the culture supernatant of the cells cultured for 12 hours was taken, mixed with 80 μl of QUANTI-Blue™ (InvivoGen, USA), and then incubated at 37° C. for 1 hour. The degree of TLR-2 activation was measured by comparing the degree of color development caused by the reaction between Quanti-Blue and extracellularly secreted SEAP, and the results are shown in FIG. 3."}}}
{"smiles": "O=C1C[C@@H](c2ccc(O)c(O)c2)Oc2c1ccc(O)c2O", "note": "[isookanin]", "values": [{"measurement": "Average degree of reaction", "setting": "human skin; upper arm, 24 hours per patch, Equation 1, less than 3 is determined to be safe", "result": "≤ 3"}, {"measurement": "skin safety conclusion of the repeated insult patch test", "setting": "human skin; nourishing creams with 0.1%, 0.5% and 1% isookanin", "result": "safe substance that shows no remarkable cumulative irritation aspect"}, {"measurement": "inhibition of human vascular endothelial cell proliferation induced by PGE2", "setting": "HMEC-1", "result": "effectively inhibiting human vascular endothelial cell proliferation induced by PGE2"}, {"measurement": "inhibition of kallikrein-5 activity", "setting": "recombinant kallikrein-5", "result": "inhibitory effect on kallikrein-5 activity in a concentration-dependent manner"}, {"measurement": "inhibition of LPS-induced PGE2 expression", "setting": "PGE2", "result": "inhibiting the LPS-induced expression of PGE2 in a concentration-dependent manner"}, {"measurement": "inhibition of chitin-induced activation of TLR-2 signaling", "setting": "TLR-2", "result": "effectively inhibiting the chitin-induced activation of TLR-2 signaling"}]}
